The target of one data set is ADAM9 (Homo sapiens (Human), UniProt Q13443). As to the kind of experiment: Enzyme inhibition studies, ADAM9. Format: biochemical.
The target of the next data set is ADAM10 (Homo sapiens (Human), UniProt O14672). Description: Enzyme inhibition studies, ADAM10. Format: biochemical.
The next data set deals with MMP-2 (Homo sapiens (Human), UniProt P08253). Description: Enzyme inhibition studies, MMP-2. Format: biochemical.
For a further data set, the target named is MMP-9 (Homo sapiens (Human), UniProt P14780). Description: Enzyme inhibition studies, MMP-9 catalytic domain. Format: biochemical. The settings on record: for residence time: reciprocal of koff.
A further data set concerns the target MMP-14 (Homo sapiens (Human), UniProt P50281). Description: Enzyme inhibition studies, MMP-14 catalytic domain. The class given is biochemical.
The next data set addresses MMP-1 (Homo sapiens (Human), UniProt P03956). As to the kind of experiment: Enzyme inhibition studies, MMP-1 catalytic domain. The class given is biochemical.
Another data set deals with MMP-3 (Homo sapiens (Human), UniProt P08254). Description: Enzyme inhibition studies, MMP-3 catalytic domain. The class given is biochemical.
The target in a further data set is MMP-7 (Homo sapiens (Human), UniProt P09237). As to the kind of experiment: Enzyme inhibition studies, MMP-7. Format: biochemical.
The target of the next data set is MMP-8 (Homo sapiens (Human), UniProt P22894). As to the kind of experiment: Enzyme inhibition studies, MMP-8 catalytic domain. The class given is biochemical.
The nature of data set [1]: Stability in buffers of the kinetic assays. Format: physicochemical. An excerpt: Human recombinant active MMP-2 and MMP-7, and the catalytic domains of MMP-3 and MMP-14/MT1-MMP were purchased from EMD Chemicals, Inc. (San Diego, Calif., USA); human recombinant catalytic domains of MMP-1, MMP-8, and MMP-9 were purchased from Enzo Life Sciences, Inc. (Farmingdale, N.Y., USA); human recombinant active ADAM9 and ADAM10 were purchased from R&D Systems (Minneapolis, Minn., USA). Fluorogenic substrates MOCAc-Pro-Leu-Gly-Leu-A2pr(Dnp)-Ala-Arg-NH2 (for MMP-2, MMP-7, MMP-9 and MMP-14) and MOCAc-Arg-Pro-Lys-Pro-Val-Glu-Nva-Trp-Arg-Lys(Dnp)-NH2 (for MMP-3) were purchased from Peptides International (Louisville, Ky., USA); Mca-KPLGL-Dpa-AR-NH2 (for MMP-1, MMP-8 and ADAM10) and Mca-PLAQAV-Dpa-RSSSR-NH2 (for ADAM9) were purchased from R&D Systems (Minneapolis, Minn., USA). […] Inhibitor stock solutions (10 mM) were prepared fresh in DMSO before enzyme inhibition assays. We followed the same methodology for enzyme inhibition studies as reported by Page-McCaw et al. (Nat. Rev. Mol. Cell Biol. 2007, 8, 221-233). Enzyme inhibition studies were carried out using a Cary Eclipse fluorescence spectrophotometer (Varian, Walnut Creek, Calif., USA). Compounds 4, 5, 6 and 7 were stable in the buffers that were used in the kinetic assays.

The conditions of data set [2]: mouse, in vivo, iv, 5 mg/kg.
Description: (§1) Mice (male CD-1, 6-7 weeks old, ˜30 g body weight, specific pathogen free) were purchased from Charles River Laboratories, Inc. (Wilmington, Mass., USA).
(§2) Samples were analyzed by ultraperformance liquid chromatography (UPLC)/(+)electrospray ionization (ESI)-multiple-reaction monitoring (MRM) with a reversed phase C18 column (Acclaim® RSLC 120 C18, 2.2 μm, 120 Å, 2.1×100 mm, Dionex, Sunnyvale, Calif., USA).
(§3) Quantification of the compounds in plasma and brain was obtained using peak-area ratios of the compounds to the internal standard, and the linear-regression parameters obtained from the calibration curves.
Another data set in a line: in vivo. The following applies: male, CD-1, mouse, iv, 5 mg/kg.
The nature of another data set: physchem. The settings on record: water, thermodynamic from solid.
Data set [3] in a line: Pharmacokinetics and brain distribution after single iv dose. The following applies: for crossing of the blood-brain barrier: in words.
Description: as §1, §2, §3
A short description of data set [4]: Water solubility (filtrate of saturated aqueous solution, UPLC-MRM).
Where [5] appears, read: catalytic domain, slow-binding, Ki from koff/kon, read-out: Ki.
The mark [6] stands for this setting: 2 min after 5 mg/kg single iv, mice.
Setting [7] is: 5 min after 5 mg/kg single iv, mice.
[8] abbreviates: 10 min after 5 mg/kg single iv, mice.
Where [9] appears, read: 30 min after 5 mg/kg single iv, mice.
The mark [10] stands for this setting: 60 min after 5 mg/kg single iv, mice.
[11] abbreviates: 90 min after 5 mg/kg single iv, mice.
[12] abbreviates: 120 min after 5 mg/kg single iv, mice.
The mark [13] stands for this setting: 240 min after 5 mg/kg single iv, mice.
Setting [14] is: 2 min after 5 mg/kg single iv, mice, HCl salt.
Where [15] appears, read: male, CD-1, mouse, in vivo, 5 mg/kg.
Setting [16] is: male, CD-1, mouse, in vivo, iv, 5 mg/kg.
Setting [17] is: plasma, 5 mg/kg single iv, mice.

“And” between values parts separate entries of the source, which are not always exact repeats. Equal values may be shown once. Where a name gives a salt, the structure may show the parent alone. Read-outs that look alike come from different tables or passages of the source.

ADAM10, sequence (O14672 214-672): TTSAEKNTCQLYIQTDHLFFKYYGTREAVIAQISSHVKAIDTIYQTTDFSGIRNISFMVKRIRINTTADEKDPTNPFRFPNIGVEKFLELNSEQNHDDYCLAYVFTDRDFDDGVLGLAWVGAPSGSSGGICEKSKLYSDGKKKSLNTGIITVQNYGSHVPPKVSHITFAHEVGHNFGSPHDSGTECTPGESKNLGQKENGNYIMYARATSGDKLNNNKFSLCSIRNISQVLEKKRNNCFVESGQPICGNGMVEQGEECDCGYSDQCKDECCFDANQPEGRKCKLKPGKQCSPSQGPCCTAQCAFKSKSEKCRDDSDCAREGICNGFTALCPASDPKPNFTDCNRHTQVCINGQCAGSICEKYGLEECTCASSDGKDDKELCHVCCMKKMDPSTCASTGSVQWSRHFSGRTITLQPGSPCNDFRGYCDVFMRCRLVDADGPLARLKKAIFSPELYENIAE
MMP-2, sequence (P08253 110-660): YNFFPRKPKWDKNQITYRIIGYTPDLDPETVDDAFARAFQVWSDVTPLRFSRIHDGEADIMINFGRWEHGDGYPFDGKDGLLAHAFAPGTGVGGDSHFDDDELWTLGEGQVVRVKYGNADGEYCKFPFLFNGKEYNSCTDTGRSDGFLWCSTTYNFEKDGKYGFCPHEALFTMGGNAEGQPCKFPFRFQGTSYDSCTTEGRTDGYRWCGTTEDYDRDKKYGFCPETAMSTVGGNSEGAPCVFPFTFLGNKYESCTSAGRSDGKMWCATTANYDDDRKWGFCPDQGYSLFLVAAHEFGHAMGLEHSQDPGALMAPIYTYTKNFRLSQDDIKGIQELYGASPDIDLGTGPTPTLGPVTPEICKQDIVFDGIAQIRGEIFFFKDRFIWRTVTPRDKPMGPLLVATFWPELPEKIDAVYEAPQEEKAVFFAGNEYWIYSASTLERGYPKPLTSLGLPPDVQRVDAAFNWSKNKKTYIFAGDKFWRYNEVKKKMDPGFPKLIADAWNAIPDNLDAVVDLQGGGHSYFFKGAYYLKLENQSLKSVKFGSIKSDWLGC
ADAM9, sequence (Q13443 206-697): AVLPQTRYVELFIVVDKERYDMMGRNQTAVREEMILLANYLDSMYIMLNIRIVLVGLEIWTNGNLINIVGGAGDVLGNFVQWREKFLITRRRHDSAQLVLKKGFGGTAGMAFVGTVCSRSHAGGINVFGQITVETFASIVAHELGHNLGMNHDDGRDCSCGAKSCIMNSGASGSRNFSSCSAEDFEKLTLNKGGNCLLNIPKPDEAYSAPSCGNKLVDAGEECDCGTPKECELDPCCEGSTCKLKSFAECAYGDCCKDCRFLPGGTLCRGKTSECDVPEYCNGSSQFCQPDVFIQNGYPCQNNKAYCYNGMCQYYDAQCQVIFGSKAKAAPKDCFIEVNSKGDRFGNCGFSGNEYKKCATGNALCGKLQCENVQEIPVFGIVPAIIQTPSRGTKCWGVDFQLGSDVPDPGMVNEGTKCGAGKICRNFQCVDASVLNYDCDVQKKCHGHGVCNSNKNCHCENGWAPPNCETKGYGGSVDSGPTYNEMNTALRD
MMP-9, sequence (P14780 107-444): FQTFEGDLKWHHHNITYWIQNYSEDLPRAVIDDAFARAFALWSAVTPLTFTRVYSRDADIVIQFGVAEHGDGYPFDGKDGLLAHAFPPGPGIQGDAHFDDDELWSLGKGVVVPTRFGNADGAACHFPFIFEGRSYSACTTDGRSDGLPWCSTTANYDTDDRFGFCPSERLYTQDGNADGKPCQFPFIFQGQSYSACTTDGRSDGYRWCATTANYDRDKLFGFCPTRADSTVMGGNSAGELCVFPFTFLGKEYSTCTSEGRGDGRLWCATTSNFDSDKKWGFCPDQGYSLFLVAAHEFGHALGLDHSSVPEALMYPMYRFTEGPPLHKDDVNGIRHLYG
MMP-3, sequence (P08254 100-272): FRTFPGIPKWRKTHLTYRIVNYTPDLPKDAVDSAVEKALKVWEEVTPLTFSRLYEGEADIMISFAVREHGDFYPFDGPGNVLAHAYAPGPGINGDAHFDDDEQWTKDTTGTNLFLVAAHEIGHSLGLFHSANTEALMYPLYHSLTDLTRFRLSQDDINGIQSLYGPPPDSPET
MMP-1, sequence (P03956 98-276): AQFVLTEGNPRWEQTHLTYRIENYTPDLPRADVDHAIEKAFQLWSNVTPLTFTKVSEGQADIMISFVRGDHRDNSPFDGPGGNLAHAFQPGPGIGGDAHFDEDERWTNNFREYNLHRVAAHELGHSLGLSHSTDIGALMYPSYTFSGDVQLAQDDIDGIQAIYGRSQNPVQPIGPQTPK
MMP-7, sequence (P09237 95-267): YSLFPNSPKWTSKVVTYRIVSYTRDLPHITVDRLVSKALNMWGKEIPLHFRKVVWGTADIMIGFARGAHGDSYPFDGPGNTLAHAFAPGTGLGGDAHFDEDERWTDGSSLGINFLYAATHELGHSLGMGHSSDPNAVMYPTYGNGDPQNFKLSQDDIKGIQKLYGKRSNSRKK
MMP-8, sequence (P22894 100-262): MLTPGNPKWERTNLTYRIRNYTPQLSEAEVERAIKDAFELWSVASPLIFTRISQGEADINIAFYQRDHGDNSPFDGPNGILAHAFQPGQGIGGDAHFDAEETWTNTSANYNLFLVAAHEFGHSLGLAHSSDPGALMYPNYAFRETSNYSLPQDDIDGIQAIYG
Description for in vivo: as §1, §2, §3

In the case of `O=S(=O)(CC1CS1)c1ccc(Oc2ccccc2)cc1` (stereo not drawn) [Compound 1, reference compound], the inhibition at 20 µM is 36% at ADAM9 (at 20 μM, read-out: Inhibition) and 34% on ADAM10 (at 20 μM, read-out: Inhibition).

Take `NCc1nc(-c2ccc(Oc3ccc(S(=O)(=O)CC4CS4)cc3)cc2)no1` (stereo not drawn) [Compound 4, (3-(4-(4-((Thiiran-2-ylmethyl)sulfonyl)phenoxy)phenyl)-1,2,4-oxadiazol-5-yl)methanamine.HCl salt]: the kon at MMP-2 amounted to 521 ± 22 M⁻¹ s⁻¹; on MMP-9 it was 32 ± 2.3 M⁻¹ s⁻¹; on MMP-14, 121 ± 11 M⁻¹ s⁻¹. Moreover, the results for the koff at MMP-2 (read-out: 10^3 koff), at MMP-9 (read-out: 10^3 koff) and on MMP-14 (read-out: 10^3 koff) were 0.33 ± 0.027 s⁻¹, 1.1 ± 0.03 s⁻¹ and 1.14 ± 0.09 s⁻¹, respectively. The residence time on MMP-2 (reciprocal of koff) is 50.5 ± 4.1 min; on MMP-9 it was 15.2 ± 0.4 min; on MMP-9 (read-out: residence time), 15.2 to 47.4 min; at MMP-14 (reciprocal of koff) it was 14.6 ± 1.1 min. Besides, the Ki at MMP-2 (slow-binding, Ki calculated from koff/kon, read-out: Ki) was 0.63 ± 0.06 µM; at MMP-9 (setting [5]) it was 34 µM; on MMP-14 (setting [5]), 9.4 µM. For the same compound, the inhibition at 100 µM stood at 8% on MMP-1; 17% against MMP-3 (at 100 μM); 8% at MMP-7; 5% against ADAM9; 1% against ADAM10. Besides, the inhibition at 50 µM at MMP-8 came out at 24%. The “stability in the buffers used in the kinetic assays” value in data set [1] is reported as “stable”. In data set [2], the AUC0-last was 108 pmol·min/mg. Further, the “AUC0-∞” value in data set [2] is 108 pmol·min/mg. The compound also registered an AUCbrain/AUCplasma in data set [2] of 0.138. For the same compound, in “in vivo”, the AUC(0-inf) is 13.1 µM·h. The same compound showed an exposure AUC(0-t) in the data set “in vivo” of 13 µM·h. In the data set “in vivo”, this compound displayed a Vd of 0.0213 L/kg. For the same compound, the clearance in the data set “in vivo” was 15.8 mL/min/kg. The compound further came in with a solubility in “physchem” of 0.61 mg/mL. Besides, the “clearance as % of hepatic blood flow” value in data set [3] (5 mg/kg single iv, mice) turned out to be 19%. Further, the Brain concentration in data set [3] (setting [6]) is given as 9.76±7.24 pmol/mg tissue; in data set [3] (setting [7]), 5.98 ± 2.94 pmol/mg tissue; in data set [3] (setting [8]) it was 3.27 ± 0.14 pmol/mg tissue; in data set [3] (setting [9]), 0.249 ± 0.127 pmol/mg tissue; in data set [3] (setting [10]), 0.0253 ± 0.0221 pmol/mg tissue; in data set [3] (setting [11]), 0.00548 ± 0.00476 pmol/mg tissue. Moreover, the Plasma concentration in [3] (setting [6]) was 62400 ± 61600 nM; in data set [3] (setting [7]) it was 2190 ± 90 nM; in data set [3] (setting [8]), 2140 ± 1510 nM; in data set [3] (setting [9]), 97 ± 90 nM and 97 ± 92 nM; in data set [3] (setting [10]), 86.3 ± 30.3 nM; in data set [3] (setting [11]), 71.6 ± 50 nM. Moreover, the Plasma concentration came to 31.8 ± 31.1 nM in data set [3] (setting [12]) and 14.9 ± 12.9 nM in data set [3] (setting [13]). In data set [3], the “crossing of the blood-brain barrier” value was “cross the blood-brain barrier”.

`N=C(N)Nc1ccc(Oc2ccc(S(=O)(=O)CC3CS3)cc2)cc1` (stereo not drawn) [Compound 7, 1-(4-(4-((Thiiran-2-ylmethyl)sulfonyl)phenoxy)phenyl)guanidine HCl salt]: on MMP-14, the affinity corresponds to a Ki of 0.04 ± 0.002 µM. This compound also gave an inhibition at 100 µM against MMP-1 of 4%. The compound also displayed a Ki at MMP-3 of 19 ± 1 µM. The compound also displayed an inhibition at 100 µM against MMP-7 of 4%. Further, at ADAM9, 100 µM produced 14% inhibition. This compound came in with an inhibition at 100 µM against ADAM10 of 25%. Further, in data set [1] (in words), the “stability in the buffers used in the kinetic assays” value is “stable”. In addition, in data set [3] (5 mg/kg single iv, mice), the “time brain levels above Ki for MMP-2” value amounted to 120 min, the “time brain levels above Ki for MMP-9” value was determined as 30 min, the “time plasma levels above Ki for MMP-2” value was 90 min and the “time plasma levels above Ki for MMP-9” value came to 60 min. Moreover, in data set [3] (setting [14]), the Brain concentration is given as 0.577±0.560 pmol/mg tissue and the Plasma concentration came out at 12600 ± 10900 nM. This compound also registered a Brain concentration in [3] (setting [7]) of 0.476 ± 0.470 pmol/mg tissue. The same compound yielded a Brain concentration in data set [3] (setting [8]) of 0.216 ± 0.071 pmol/mg tissue. In [3] (setting [9]), this compound had a Brain concentration of 0.117 ± 0.024 pmol/mg tissue. In addition, the Brain concentration in data set [3] (setting [10]) was 0.0228 ± 0.0033 pmol/mg tissue. Moreover, the Brain concentration in data set [3] (setting [11]) turned out to be 0.0409 ± 0.0155 pmol/mg tissue. The Brain concentration in data set [3] (setting [12]) amounted to 0.0222 ± 0.0072 pmol/mg tissue. The compound further yielded a Brain concentration in data set [3] (setting [13]) of 0.0161 ± 0.0035 pmol/mg tissue. In data set [3] (brain, 5 mg/kg single iv, mice), the AUC0-last is 14.3 pmol·min/mg, the “AUC0-∞” value is 17.4 pmol·min/mg, the t1/2α came to 47 min and the t1/2β was found to be 133 min. Moreover, the “crossing of the blood-brain barrier” value in [3] is “cross the blood-brain barrier”. In [3] (setting [15]), this compound came in with a concentration at 2 min of 12600 ± 10900 nM, a concentration at 5 min of 4370 ± 2630 nM, a concentration at 10 min of 3920 ± 780 nM and a concentration at 30 min of 482 ± 229 nM. Besides, in data set [3] (setting [15]), the concentration at 60 min turned out to be 119 ± 51 nM, the concentration at 90 min stood at 22 ± 8 nM, the concentration at 120 min turned out to be 6.3 ± 4.9 nM and the concentration at 240 min is 3.2 ± 2.66 nM. In data set [3] (setting [16]), the AUC(0-inf) was 2.13 µM·h, the AUC(0-t) is 2.13 µM·h, the Kp is 0.136 and the Vd came to 1.08 L/kg. The compound further gave a clearance in data set [3] (setting [16]) of 107 mL/min/kg. In [3] (setting [17]), the CL is 107 mL/min/kg, the t1/2α is listed as 5.22 min and the t1/2β amounted to 64.2 min. The Aq. solubility in data set [4] is recorded as 32 mg/mL. This compound also came in with a solubility in [4] (thermodynamic from solid) of 32 mg/mL.

For `COC(=O)Nc1ccc(Oc2ccc(S(=O)(=O)CC3CS3)cc2)cc1` (stereo not drawn) [ND-380], the Ki on MMP-9 (read-out: MMP-9 Ki) was 0.18 ± 0.03 µM.

(Values after US9951035B2, “Selective matrix metalloproteinase inhibitors” (University of Notre Dame du Lac, priority 2014, dated 2018).)
